Measured values as given in patent US20150105252A1, “SUBSTITUTED PYRAZOLES AS HERBICIDES” (E I DU PONT DE NEMOURS AND COMPANY, priority 2013, published 2015).

Experiments:
soybean = assay: Test C preemergence; format: in vivo, Glycine max; conditions: for Plant response rating (scale of 0 to 100), Soybean: 250 g ai/ha
Summary of the method: (§1)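 Visual control ratings on a 0–100 scale (100 = complete control) made against untreated controls after 13 to 15 days in greenhouse. Compounds applied in surfactant-containing solvent mixture, either preemergence to loam/sand-sown seeds or postemergence to 1- to 4-leaf plants (2–18 cm) in peat medium.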

ryegrass, Italian = assay: Test C postemergence; format: in vivo, Lolium multiflorum; conditions: for Plant response rating (scale of 0 to 100 where 0 is no effect and 100 is complete control), Ryegrass, Italian: 31 g ai/ha, visually evaluated after 13 to 15 days; for Ryegrass, Italian plant response rating / Plant response rating, Ryegrass, Italian: postemergence; for Ryegrass, Italian plant response rating: 62 g ai/ha, scale 0 to 100
Summary of the method: as §1

barnyardgrass [1] = assay: Test C preemergence; format: in vivo, Echinochloa crus-galli; conditions: for Plant response rating (scale of 0 to 100), Barnyardgrass: 250 g ai/ha
From the text: (§2) Seeds of plant species selected from blackgrass (Alopecurus myosuroides), ryegrass, Italian (Italian ryegrass, Lolium multiflorum), wheat (winter wheat, Triticum aestivum), galium (catchweed bedstraw, Galium aparine), corn (Zea mays), crabgrass, large (large crabgrass, Digitaria sanguinalis), foxtail, giant (giant foxtail, Setaria faberii), johnsongrass (Sorghum halepense), lambsquarters (Chenopodium album), morningglory (Ipomoea coccinea), nutsedge, yellow (yellow nutsedge, Cyperus esculentus), pigweed (redroot pigweed, Amaranthus retroflexus), ragweed (common ragweed, Ambrosia elation), soybean (Glycine max), barnyardgrass (Echinochloa crus-galli), oilseed rape (Brassica napus), waterhemp (common waterhemp, Amaranthus rudis), oat, wild (wild oat, Avena fatua), kochia (Kochia scoparia), Surinam grass (Brachiaria decumbens), foxtail, green (green foxtail, Setaria viridis), goosegrass (Eleusine indica), bromegrass, downy (downy bromegrass, Bromus tectorum), nightshade (eastern black nightshade, Solanum ptycanthum), cocklebur (common cocklebur, Xanthium strumarium), cupgrass, woolly (woolly cupgrass, Eriochloa villosa), bermudagrass (Cynodon dactylon), sunflower, (common oilseed sunflower, Helianthus annuus), Russian thistle (Salsola kali), and velvetleaf (Abutilon theophrasti) were planted into a blend of loam soil and sand and treated preemergence with test chemicals formulated in a non-phytotoxic solvent mixture which included a surfactant.
(§3) At the same time, plants selected from these crop and weed species and also chickweed (common chickweed, Stellaria media), canarygrass (littleseed canarygrass, Phalaris minor), and deadnettle (henbit deadnettle, Lamium amplexicaule), were planted in pots containing Redi-Earth® planting medium (Scotts Company, 14111 Scottslawn Road, Marysville, Ohio 43041) comprising spaghnum peat moss, vermiculite, wetting agent and starter nutrients and treated with postemergence applications of test chemicals formulated in the same manner. Plants ranged in height from 2 to 18 cm (1- to 4-leaf stage) for postemergence treatments. Treated plants and controls were maintained in a greenhouse for 13 to 15 days, after which time all species were compared to controls and visually evaluated. Plant response ratings, summarized in Table C, are based on a scale of 0 to 100 where 0 is no effect and 100 is complete control. A dash (-) response means no test result.

johnsongrass = assay: Test C preemergence; format: in vivo, Sorghum halepense; conditions: for Plant response rating (scale of 0 to 100), Johnsongrass: 250 g ai/ha
Summary of the method: as §1

corn = assay: Test C postemergence; format: in vivo, Zea mays; conditions: for Corn plant response rating: scale 0 to 100
From the text: as §2, §3

pigweed = assay: Test C postemergence; format: in vivo, Amaranthus retroflexus; conditions: for Plant response rating (scale of 0 to 100 where 0 is no effect and 100 is complete control), Pigweed: visually evaluated after 13 to 15 days; for Pigweed plant response rating: scale 0 to 100
Summary of the method: as §1

ducksalad = assay: Test B flood; format: in vivo, Heteranthera limosa; conditions: 250 g ai/ha, visual rating on 0 to 100 scale (0 no effect, 100 complete control), 13 to 15 days
Summary of the method: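 Each compound is applied to the floodwater of pots holding 2-leaf seedlings, water standing 3 cm over the soil throughout. Plants stay in a greenhouse 13 to 15 days before visual scoring against controls from 0 (no effect) to 100 (complete control).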

crabgrass, large = assay: Test C postemergence; format: in vivo, Digitaria sanguinalis; conditions: for Plant response rating (scale of 0 to 100 where 0 is no effect and 100 is complete control), Crabgrass, Large: visually evaluated after 13 to 15 days; for Crabgrass, Large plant response rating: scale 0 to 100
Summary of the method: as §1

morningglory = assay: Test A preemergence; format: in vivo, Ipomoea spp.
Summary of the method: (§4)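 Seeds were sown in a loam soil–sand blend and given a directed soil spray preemergence; postemergence plants at 2–10 cm, one- to two-leaf stage, were sprayed with compound in non-phytotoxic solvent with surfactant. After about 10 days in a greenhouse, injury was visually rated against untreated controls (0 = no effect, 100 = complete control).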

chickweed = assay: Test C postemergence; format: in vivo, Stellaria media; conditions: for Plant response rating (scale of 0 to 100 where 0 is no effect and 100 is complete control), Chickweed: visually evaluated after 13 to 15 days; for Chickweed plant response rating: scale 0 to 100
From the text: as §2, §3

barnyardgrass [2] = assay: Test A postemergence; format: in vivo, Echinochloa crus-galli
Summary of the method: as §4

[3] = preemergence, 31 g ai/ha, scale 0 to 100 (0 no effect, 100 complete control), 13 to 15 days
[4] = preemergence, 62 g ai/ha, 13 to 15 days, scale 0 to 100, 0 = no effect, 100 = complete control
[5] = preemergence, 125 g ai/ha, scale 0 to 100, 0 is no effect, 100 is complete control
[6] = 250 g ai/ha, scale 0 to 100 (0 no effect, 100 complete control)
[7] = 125 g ai/ha, scale 0 to 100, 0 no effect, 100 complete control
[8] = postemergence, 125 g ai/ha, scale 0 to 100, 0 no effect, 100 complete control
[9] = postemergence, 250 g ai/ha, scale 0 to 100 (0 no effect, 100 complete control)
[10] = Preemergence, 500 g ai/ha, 0 to 100 scale, 0 no effect, 100 complete control
[11] = preemergence, 125 g ai/ha, visual injury, 0 to 100 scale, approx. 10 days
[12] = Postemergence, 125 g ai/ha, 0 to 100 scale, 0 no effect, 100 complete control
[13] = Postemergence, 500 g ai/ha, visual rating after approx. 10 days, 0 to 100 scale (0 no effect, 100 complete control)
[14] = Preemergence, 16 g ai/ha, scale 0 to 100
[15] = preemergence, 31 g ai/ha, visual rating, scale 0 to 100 (0 no effect, 100 complete control), 13 to 15 days
[16] = preemergence, 62 g ai/ha, scale 0 to 100 (0 no effect, 100 complete control), 13 to 15 days

Structure (SMILES)	Plant response rating (scale of 0 to 100), Soybean (soybean; Preemergence)	Soybean plant response rating (soybean; [3])	Plant response rating, Soybean (soybean; [4])	Soybean plant response rating (soybean; [5])	Plant response rating (scale of 0 to 100 where 0 is no effect and 100 is complete control), Ryegrass, Italian (ryegrass, Italian; Postemergence)	Ryegrass, Italian plant response rating (ryegrass, Italian)	Plant response rating, Ryegrass, Italian (ryegrass, Italian; [7])	Barnyardgrass plant response rating (barnyardgrass [1]; [3])	Barnyardgrass plant response rating (barnyardgrass [1]; [5])	Johnsongrass plant response rating (johnsongrass; [5])	Corn plant response rating (corn; postemergence, 62 g ai/ha)	Plant response rating, Corn (corn; [8])	Pigweed plant response rating (pigweed; postemergence, 62 g ai/ha)	Plant response rating, Pigweed (pigweed; [8])	Plant response rating, Ducksalad (ducksalad)	Crabgrass, Large plant response rating (crabgrass, large; postemergence, 62 g ai/ha)	Morningglory plant response rating (morningglory; [11])	Chickweed plant response rating (chickweed; postemergence, 62 g ai/ha)	Plant response rating, Chickweed (chickweed; [8])	Barnyardgrass plant response rating (barnyardgrass [2]; [13])	also measured
CCc1cc(C(=O)NC2CC2)nn1Cc1ccnc(C(F)(F)F)c1 [Compound 76]	100	80	98	98	5	5	5	95	100	100	10	20	60	90	85	10	70	80	80	90	Plant response rating, Ryegrass, Italian (ryegrass, Italian; [6]): 10; Plant response rating (scale of 0 to 100), Barnyardgrass (barnyardgrass [1]; Preemergence): 100; Plant response rating, Barnyardgrass (barnyardgrass [1]; [4]): 100; Plant response rating (scale of 0 to 100), Johnsongrass (johnsongrass; Preemergence): 100; Johnsongrass plant response rating (johnsongrass; [3]): 80; Plant response rating, Johnsongrass (johnsongrass; [4]): 100; Plant response rating (scale of 0 to 100 where 0 is no effect and 100 is complete control), Corn (corn; Postemergence, 31 g ai/ha, visually evaluated after 13 to 15 days): 5; Plant response rating (scale of 0 to 100 where 0 is no effect and 100 is complete control), Pigweed (pigweed; Postemergence, 31 g ai/ha): 60; Plant response rating, Pigweed (pigweed; [9]): 98; Plant response rating (scale of 0 to 100 where 0 is no effect and 100 is complete control), Crabgrass, Large (crabgrass, large; Postemergence, 31 g ai/ha): 5; Plant response rating, Crabgrass, Large (crabgrass, large; [9]): 70; Plant response rating, Crabgrass, Large (crabgrass, large; [8]): 70; Morningglory plant response rating (morningglory; [10]): 100; Plant response rating (scale of 0 to 100 where 0 is no effect and 100 is complete control), Chickweed (chickweed; Postemergence, 31 g ai/ha): 50; Plant response rating, Chickweed (chickweed; [9]): 85; Barnyardgrass plant response rating (barnyardgrass [2]; [12]): 80
CCCNC(=O)c1cc(CC)n(Cc2ccnc(C(F)(F)F)c2)n1 [Compound 75]		85	98	98		5	10	100	100	100	20	40	60	80	85	25	90	70	85	90	Plant response rating, Soybean (soybean; [14]): 35; Plant response rating (scale of 0 to 100), Ryegrass, Italian (ryegrass, Italian; Postemergence, 16 g ai/ha): 5; Plant response rating, Barnyardgrass (barnyardgrass [1]; [14]): 60; Plant response rating, Barnyardgrass (barnyardgrass [1]; [4]): 100; Plant response rating, Johnsongrass (johnsongrass; [14]): 65; Johnsongrass plant response rating (johnsongrass; [3]): 100; Plant response rating, Johnsongrass (johnsongrass; [4]): 100; Plant response rating (scale of 0 to 100), Corn (corn; Postemergence, 16 g ai/ha): 0; Corn plant response rating (corn; Postemergence, 31 g ai/ha): 5; Plant response rating (scale of 0 to 100), Pigweed (pigweed; Postemergence, 16 g ai/ha): 40; Pigweed plant response rating (pigweed; Postemergence, 31 g ai/ha): 40; Plant response rating (scale of 0 to 100), Crabgrass, Large (crabgrass, large; Postemergence, 16 g ai/ha): 20; Crabgrass, Large plant response rating (crabgrass, large; Postemergence, 31 g ai/ha): 20; Plant response rating, Crabgrass, Large (crabgrass, large; [8]): 80; Morningglory plant response rating (morningglory; [10]): 90; Plant response rating (scale of 0 to 100), Chickweed (chickweed; Postemergence, 16 g ai/ha): 65; Chickweed plant response rating (chickweed; Postemergence, 31 g ai/ha): 65; Barnyardgrass plant response rating (barnyardgrass [2]; [12]): 90
CCc1cc(-c2ccc(C(F)(F)F)cc2)nn1Cc1ccnc(C(F)(F)F)c1 [Compound 110]	20			15	20	20	35	25	65	80	15	25	85	90	80	40	90	70	90	90	Soybean plant response rating (soybean; [15]): 10; Plant response rating, Ryegrass, Italian (ryegrass, Italian; [6]): 40; Plant response rating (scale of 0 to 100), Barnyardgrass (barnyardgrass [1]; Preemergence): 90; Barnyardgrass plant response rating (barnyardgrass [1]; [16]): 30; Plant response rating (scale of 0 to 100), Johnsongrass (johnsongrass; Preemergence): 95; Johnsongrass plant response rating (johnsongrass; [15]): 15; Johnsongrass plant response rating (johnsongrass; [16]): 30; Plant response rating, Corn (corn; [9]): 25; Plant response rating (scale of 0 to 100 where 0 is no effect and 100 is complete control), Pigweed (pigweed; Postemergence, 31 g ai/ha): 85; Plant response rating, Pigweed (pigweed; [9]): 98; Plant response rating (scale of 0 to 100 where 0 is no effect and 100 is complete control), Crabgrass, Large (crabgrass, large; Postemergence, 31 g ai/ha): 35; Plant response rating, Crabgrass, Large (crabgrass, large; [9]): 60; Morningglory plant response rating (morningglory; preemergence, 500 g ai/ha, visual injury after approx. 10 days, 0 to 100 scale (0 no effect, 100 complete control)): 100; Plant response rating (scale of 0 to 100 where 0 is no effect and 100 is complete control), Chickweed (chickweed; Postemergence, 31 g ai/ha): 70; Plant response rating, Chickweed (chickweed; [9]): 95; Barnyardgrass plant response rating (barnyardgrass [2]; postemergence, 125 g ai/ha, about 10 days, visual rating on 0 to 100 scale (0 no effect, 100 complete control)): 80
